The values below are quoted from earlier work in US20040126339A1, “Sunscreen composition and methods for manufacturing and using a sunscreen composition” (priority 2002, published 2004).

The conditions of this series: in vivo.

In the case of “Poly(vinylpyrrolidone/1-hexadecene) [PVPH]”, the dermal toxicity result is “no demonstrable dermal toxicity”.

Turning to “Poly(vinylpyrrolidone/1-eicosene) [PVPE]”, the dermal toxicity result was “no demonstrable dermal toxicity”.
